These are literature values, as cited in patent publication US20250090522A1 (priority 2021, published 2025).

Entries after “also recorded” stand apart in the source; their conditions may differ. Like-named read-outs stand apart in the source and are kept apart here.

In data set [1] the target is H1 receptor (Homo sapiens, UniProt P35367). The conditions noted are these: acidic pH.
For data set [2], the system named is histamine induced wheal and flare.
The test system of data set [3] is activator protein-1 (AP-1). The conditions noted are these: H1 receptor-dependent and independent mechanisms.
In data set [4] the test system is RANTES. The conditions noted are these: dose-dependent manner.
For data set [5] the following is noted: 421 patients with allergy/asthma treated for six months; p<0.001 for all scales.
The test system of data set [6] is chronic idiopathic urticaria (CIU). The settings on record: from 5 to 20 mg/day.
Assay in data set [7]: not given
The source holds these as a separate data set.

For data set [8], the system named is human rhinovirus (HRV).
Assay in data set [9]: not given
This is another data set of the same source.

Data set [10] deals with SARS-CoV.
For data set [11], the system named is MERSCoV.
For data set [12] the following is noted: withdrawn from the US market in 1999.
[13] abbreviates: airway epithelial cells from nose and lung.

Chain of H1 receptor (P35367 whole entry): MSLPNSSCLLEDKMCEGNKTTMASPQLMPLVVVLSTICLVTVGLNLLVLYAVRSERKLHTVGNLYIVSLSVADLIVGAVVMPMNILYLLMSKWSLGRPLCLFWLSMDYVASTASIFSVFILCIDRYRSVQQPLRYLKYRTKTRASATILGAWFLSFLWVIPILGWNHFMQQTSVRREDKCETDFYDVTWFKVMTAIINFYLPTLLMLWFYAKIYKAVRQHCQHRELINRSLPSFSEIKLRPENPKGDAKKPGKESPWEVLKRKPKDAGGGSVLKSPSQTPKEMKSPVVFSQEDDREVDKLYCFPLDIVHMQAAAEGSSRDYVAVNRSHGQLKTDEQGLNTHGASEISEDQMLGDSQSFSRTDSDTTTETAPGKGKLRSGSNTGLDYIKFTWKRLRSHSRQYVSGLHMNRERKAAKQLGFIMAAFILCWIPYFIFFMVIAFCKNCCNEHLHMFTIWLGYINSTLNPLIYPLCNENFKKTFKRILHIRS

On to `O=C(O)COCCN1CCN([C@H](c2ccccc2)c2ccc(Cl)cc2)CC1` [Levocetirizine], for which, in [1], the “enhanced receptor affinity over first generation mepyramine” value is 5 ×. For the same molecule, in data set [2] (histamine wheal and flare data), the “potency among the five modern generation antihistamines” value is “most potent”. Also, in data set [2] (levocetirizine 5 mg per day versus fexofenadine 180 mg per day), the effectiveness versus fexofenadine result is “more effective than fexofenadine”. For the same molecule, in data set [3], the “activator protein-1 (AP-1) activity” value is recorded as “inhibit”. The “tumor necrosis factor-a induced production of the chemokine RANTES” value in data set [4] is “decrease”. The “quality of life (SF-36)” value in [5] is “improved quality of life across all treatment domains; also recorded: independently improve quality of life”. In addition, the “efficacy in CIU on titration” value in data set [6] was “Titratable with increasing efficacy”. Further, where the note is “in vivo”, the “time to steady state level” value was 40 h. Also, the “doses that can be safely administered” value in [7] (studies in humans) is reported as “up to 30 mg/day”. In addition, in [8] (setting [13]), the HRV viral replication entry was “inhibit”, the “HRV-induced ICAM-1” value is on record as “inhibit” and the HRV-induced cytokine expression entry is “inhibit”. The “antiviral activity against human rhinovirus-16 (HRV-16)” value in data set [8] (cell and clinical science) is “Cell and clinical science-antiviral”.
For `CC(C)(O)c1ccccc1CC[C@@H](SCC1(CC(=O)O)CC1)c1cccc(/C=C/c2ccc3ccc(Cl)cc3n2)c1` [Montelukast], the “linear pharmacokinetics to” value (in vivo) is given as “pharmacokinetics to 50 mg/day”. For the setting “with warfarin, theophylline, digoxin, terfenadine, oral contraceptives, or prednisone”, the drug interactions entry was “no drug interactions”. Also, the “doses administered without clinically relevant side effects” value was “up to 200 mg/day” in data set [7] (adult patients, 22 weeks) and “up to 900 mg/day” in data set [7] (short-term studies, approximately one week). Besides, in [9] (compared to inhaled corticosteroids (ICS)), the “risk of mental health side effects” value was “no increased risk”. The “risk of outpatient depression” value in data set [9] (patients with a psychiatric history, compared to ICS patients) is on record as “decreased risk”.
Turning to `COc1ccc(CCN2CCC(Nc3nc4ccccc4n3Cc3ccc(F)cc3)CC2)cc1` [astemizole], the “activity against SARS-CoV” value in data set [10] is recorded as “astemizole was active against both”. In data set [11], the “activity against MERSCoV” value was “astemizole was active against both”. Also, the cardiac toxicity result in [12] is given as “prolongation of the QTc interval”.
